The record followed here is patent US7521418B2, “Use of a polyene macrolide antifungal agent in combination with a glycopeptide antibacterial agent” (Theravance, Inc., priority 2003, dated 2009).

In one experiment the test system is C. krusei ATCC 32672. Nature of the experiment: Checkerboard MIC assay, FICI. The class given is cell-based, Candida krusei. From the text: (§1) The following assay was used to determine the minimum inhibitory concentration (MIC) and fractional inhibitory concentration index (FICI) for combinations of an antifungal agent and a glycopeptide antibacterial agent. This assay and methods for calculating FICI are well known in the art. See, for example, Eliopoulos, E. G. and R. Moellering, Jr. “Antimicrobial Combinations” in Antibiotics in Laboratory Medicine, edited by V. Lorian, 4th Ed., Williams & Wilkins, Baltimore, MD, pp. 330-396 (1996); […] et al., Antimicrobial Agents and Chemotherapy 47(4):1416-1418 (2003); or […] et al., Antimicrobial Agents and Chemotherapy 46(10):3323-3326 (2002). Procedures, protocols, supplies and equipment used in this assay follow the recommendations approved and published by the National Committee for Clinical Laboratory Standards (NCCLS), Wayne, Pa. as described in NCCLS 2003, “Reference Method for Broth Dilution Antimicrobial Susceptibility Tests for Bacteria that Grow Aerobically; Approved Standard” (NCCLS document M7-A6); NCCLS 2002, “Reference Method for Broth Dilution Antifungal Susceptibility Tests of Filamentous Fungi that Grow Aerobically; Approved Standard” (NCCLS document M38-A); and NCCLS 2002 “Reference Method for Broth Dilution Antifungal Susceptibility Tests of Yeast; Approved Standards-2nd Edition” (NCCLS document M27-A2). Using a checkerboard method, a 2-fold dilution 100× final concentration master plate was prepared using a 96-well U-shape microtiter plate and an appropriate solvent. In the “checkerboard” method, a microtiter plate is divided into “columns” in which each well in the column contains the same amount of an antifungal agent (Compound A) being diluted along the x-axis, and “rows” in which each well in the row contains the same amount of a glycopeptide antibacterial agent (Compound B) being diluted on the y-axis. Also included is a row (or column) for Compound A or B alone. The dilutions used in the checkerboard are exponential (by powers of two). The result is that each well in the microtiter plate contains a unique concentration of the two compounds being tested. […] After mixing, 100 μL of 2× drug combinations were distributed into 96-well microtiter plates. […] Compound A was not added to Column 12, so Column 12 contained only Compound B. Compound B was diluted from row A starting at 6,400 μg/mL down to row G (100 μg/mL). Wells in Row A contained a final concentration of 64 μg/mL of Compound B; Row B contained a final concentration of 32 μg/mL of Compound B; Row C contained a final concentration of 16 μg/mL of Compound B; etc. Compound B was not added to Row H, so Row H only contained Compound A. […] The MIC of the glycopeptide antibacterial agent determined from this experiment was used in FIC calculations. […] RPMI-1640 without sodium bicarbonate media (GIBCO-BRL, Carlsbad, Calif.), an enriched media formulated for mammalian cells, was used according to the NCCLS guidelines for yeast and filamentous fungi susceptibility testing. The medium was buffered with 0.165 M 3-[N-Morpholino]propanesulfonic acid (MOPS) supplemented with 20 g/L glucose and pH adjusted to 7.0 with hydrogen chloride. Sabouraud Dextrose Agar ([…] plates, and Potato Dextrose Agar (PDA) plates were purchased from Hardy Diagnostic (Santa Maria, Calif.). Yeast cultures were started from -80° C. frozen stock streaked on […] incubated at 35° C. under aerobic conditions for 24 h. The […] in the refrigerator for up to 2 weeks and used regularly as a starting culture. About 24 to 48 h before each assay was run, yeasts were streaked on SDA plates for isolated colonies. To prepare the inoculum, from one to four colonies were resuspended in 5 mL of saline, and vortexed for 15 sec. […] For most yeast and mold cultures, the optical density (OD) of the suspension was adjusted to 0.11 in saline to provide 0.4×10^6 CFU/mL. However, for Fusarium moniliforme and Pseudallescheria boydii the OD of the suspension was adjusted to OD=0.17 to provide 0.4×10^6 CFU/mL. […]

In experiment [1] the test system is C. parapsilosis ATCC 22019. Nature of the experiment: Checkerboard MIC assay, FICI. The class given is cell-based, Candida parapsilosis.
From the text: as §1

The subject of another experiment is C. tropicalis ATCC 750. Nature of the experiment: Checkerboard MIC assay, FICI. The class given is cell-based, Candida tropicalis.
From the text: as §1

The next experiment deals with C. albicans ATCC 24433. Put plainly: Checkerboard MIC assay, FICI. The class given is cell-based, Candida albicans.
From the text: as §1

A further experiment deals with C. glabrata ATCC 200918. Nature of the experiment: Checkerboard MIC assay, FICI. The class given is cell-based, Candida glabrata. Particulars: combination with Compound 1. The text has this: The following assay was used to determine the minimum inhibitory concentration (MIC) and fractional inhibitory concentration index (FICI) for combinations of an antifungal agent and a glycopeptide antibacterial agent. This assay and methods for calculating FICI are well known in the art. See, for example, Eliopoulos, E. G. and R. Moellering, Jr. “Antimicrobial Combinations” in Antibiotics in Laboratory Medicine, edited by V. Lorian, 4th Ed., Williams & Wilkins, Baltimore, MD, pp. 330-396 (1996); […] et al., Antimicrobial Agents and Chemotherapy 47(4):1416-1418 (2003); or […] et al., Antimicrobial Agents and Chemotherapy 46(10):3323-3326 (2002). Procedures, protocols, supplies and equipment used in this assay follow the recommendations approved and published by the National Committee for Clinical Laboratory Standards (NCCLS), Wayne, Pa. as described in NCCLS 2003, “Reference Method for Broth Dilution Antimicrobial Susceptibility Tests for Bacteria that Grow Aerobically; Approved Standard” (NCCLS document M7-A6); NCCLS 2002, “Reference Method for Broth Dilution Antifungal Susceptibility Tests of Filamentous Fungi that Grow Aerobically; Approved Standard” (NCCLS document M38-A); and NCCLS 2002 “Reference Method for Broth Dilution Antifungal Susceptibility Tests of Yeast; Approved Standards-2nd Edition” (NCCLS document M27-A2). Using a checkerboard method, a 2-fold dilution 100× final concentration master plate was prepared using a 96-well U-shape microtiter plate and an appropriate solvent. In the “checkerboard” method, a microtiter plate is divided into “columns” in which each well in the column contains the same amount of an antifungal agent (Compound A) being diluted along the x-axis, and “rows” in which each well in the row contains the same amount of a glycopeptide antibacterial agent (Compound B) being diluted on the y-axis. Also included is a row (or column) for Compound A or B alone. The dilutions used in the checkerboard are exponential (by powers of two). The result is that each well in the microtiter plate contains a unique concentration of the two compounds being tested. […] After mixing, 100 μL of 2× drug combinations were distributed into 96-well microtiter plates. […] Compound A was not added to Column 12, so Column 12 contained only Compound B. Compound B was diluted from row A starting at 6,400 μg/mL down to row G (100 μg/mL). Wells in Row A contained a final concentration of 64 μg/mL of Compound B; Row B contained a final concentration of 32 μg/mL of Compound B; Row C contained a final concentration of 16 μg/mL of Compound B; etc. Compound B was not added to Row H, so Row H only contained Compound A. […] The MIC of the glycopeptide antibacterial agent determined from this experiment was used in FIC calculations. […]

The next experiment deals with various strains of fungi. Put plainly: Assay for determining MIC and FICI, summary over strains. The class given is cell-based. The following applies: combination with amphotericin B. The text has this: The following assay was used to determine the minimum inhibitory concentration (MIC) and fractional inhibitory concentration index (FICI) for combinations of an antifungal agent and a glycopeptide antibacterial agent. This assay and methods for calculating FICI are well known in the art. See, for example, Eliopoulos, E. G. and R. Moellering, Jr. “Antimicrobial Combinations” in Antibiotics in Laboratory Medicine, edited by V. Lorian, 4th Ed., Williams & Wilkins, Baltimore, MD, pp. 330-396 (1996); Shalit et al., Antimicrobial Agents and Chemotherapy 47(4):1416-1418 (2003); or Afeltra et al., Antimicrobial Agents and Chemotherapy 46(10):3323-3326 (2002).
Procedures, protocols, supplies and equipment used in this assay follow the recommendations approved and published by the National Committee for Clinical Laboratory Standards (NCCLS), Wayne, Pa. as described in NCCLS 2003, “Reference Method for Broth Dilution Antimicrobial Susceptibility Tests for Bacteria that Grow Aerobically; Approved Standard” (NCCLS document M7-A6); NCCLS 2002, “Reference Method for Broth Dilution Antifungal Susceptibility Tests of Filamentous Fungi that Grow Aerobically; Approved Standard” (NCCLS document M38-A); and NCCLS 2002 “Reference Method for Broth Dilution Antifungal Susceptibility Tests of Yeast; Approved Standards-2nd Edition” (NCCLS document M27-A2). […]

[2] abbreviates: combination with Amphotericin B, C. krusei 32672.
Setting [3] is: combination with Amphotericin B, C. parapsilosis 22019.
The mark [4] stands for this setting: combination with Amphotericin B, C. tropicalis 750.
The mark [5] stands for this setting: combination with Amphotericin B, C. albicans 24433.
[6] abbreviates: combination with Compound 1, C. krusei ATCC 32672.
Where [7] appears, read: combination with Compound 1, C. parapsilosis ATCC 22019.
[8] abbreviates: combination with Compound 1, C. tropicalis ATCC 750.
[9] abbreviates: combination with Compound 1, C. albicans ATCC 24433.

On to `CCCCCCCCCCNCCN[C@@]1(C)C[C@H](O[C@H]2[C@H](Oc3c4cc5cc3Oc3ccc(cc3Cl)[C@@H](O)[C@@H](NC(=O)[C@@H](CC(C)C)NC)C(=O)N[C@@H](CC(N)=O)C(=O)N[C@H]5C(=O)N[C@H]3C(=O)N[C@H](C(=O)N[C@H](C(=O)O)c5cc(O)c(CNCP(=O)(O)O)c(O)c5-c5cc3ccc5O)[C@H](O)c3ccc(c(Cl)c3)O4)O[C@H](CO)[C@@H](O)[C@@H]2O)O[C@@H](C)[C@H]1O` [Compound 1, telavancin], for which the FICI (with C. krusei ATCC 32672 (setting [2]); in experiment [1] (setting [3]); in the experiment on C. tropicalis ATCC 750 (setting [4]); in the experiment with C. albicans ATCC 24433 (setting [5])) was 0.31 throughout.
Regarding `OC(Cn1cncn1)(Cn1cncn1)c1ccc(F)cc1F` [Fluconazole], the FICI (in the experiment with C. glabrata ATCC 200918; in the experiment on C. krusei ATCC 32672 (setting [6]); in experiment [1] (setting [7]); with C. tropicalis ATCC 750 (setting [8]); in the experiment on C. albicans ATCC 24433 (setting [9])) was 2.00 in each case.
Take `Clc1ccc(COC(Cn2ccnc2)c2ccc(Cl)cc2Cl)c(Cl)c1` (centres unmarked) [Miconazole, miconazole]: the FICI (in experiment [1] (setting [7]); in the experiment with C. tropicalis ATCC 750 (setting [8]); with C. albicans ATCC 24433 (setting [9])) was 2.00 throughout.
Regarding `CN[C@H](CC(C)C)C(=O)N[C@H]1C(=O)N[C@@H](CC(N)=O)C(=O)N[C@H]2C(=O)N[C@H]3C(=O)N[C@H](C(=O)N[C@H](C(=O)O)c4cc(O)cc(O)c4-c4cc3ccc4O)[C@H](O)c3ccc(c(Cl)c3)Oc3cc2cc(c3O[C@@H]2O[C@H](CO)[C@@H](O)[C@H](O)[C@H]2O[C@H]2C[C@](C)(N)[C@H](O)[C@H](C)O2)Oc2ccc(cc2Cl)[C@H]1O` [Vancomycin], the FICI (with C. krusei ATCC 32672 (setting [2]); in experiment [1] (setting [3]); in the experiment on C. tropicalis ATCC 750 (setting [4]); in the experiment on C. albicans ATCC 24433 (setting [5])) was 2.00 throughout. In the experiment on various strains of fungi, the “effect of the combination” value is “not synergistic or additive”.
As for `C[C@@H](c1ncncc1F)[C@](O)(Cn1cncn1)c1ccc(F)cc1F` [Voriconazole, voriconazole], the FICI with C. glabrata ATCC 200918 and with C. krusei ATCC 32672 (setting [6]) was 1.13 throughout.
As for Teicoplanin, the FICI in the experiment with C. krusei ATCC 32672 (setting [2]) is 0.38; in experiment [1] (setting [3]), 0.38; in the experiment with C. tropicalis ATCC 750 (setting [4]), 0.38; with C. albicans ATCC 24433 (setting [5]) it was 0.53.
